The record followed here is US20230073777A1, “CYCLIC-AMP RESPONSE ELEMENT BINDING PROTEIN (CBP) AND/OR ADENOVIRAL E1A BINDING PROTEIN OF 300 KDA (P300) DEGRADATION COMPOUNDS AND METHODS OF USE” (CULLGEN (SHANGHAI), INC., priority 2019, published 2023).

In general, IC50 refers to the concentration at which inhibition is half-maximal. A lower IC50 goes with greater potency in that assay.

The test system of one assay is HEL. Description: Cell viability assay, HEL. The format is cell-based. Particulars: Homo sapiens, Erythroleukemia. As to the method:
(§1) Cells were seeded at a density of 5000 cells per well in 96-well assay plates and treated with test compounds following a 12-point 3-fold serial dilution. Three days later, cell viability was determined using the CellTiter-Glo assay kit according to the manufacturer's instructions. The dose-response curves were determined and IC50 values were calculated using the GraphPad Prism software following a nonlinear regression (least squares fit) method.
(§2) The IC50 value of each compound was determined as described in FIG. 4 and calculated using the GraphPad Prism 5.0 software.

A further assay has as its system MV4; 11. As to the kind of experiment: Cell viability assay, MV4; 11. The class given is cell-based. Particulars: Homo sapiens, 11, Acute monocytic leukemia. As to the method: as §1, §2
A further assay has as its system MEG-01. Description: Cell viability assay, MEG-01. The class given is cell-based. Particulars: Homo sapiens, MEG-01, Chronic myeloid leukemia. As to the method:
as §1, §2

A further assay deals with MM.1S. As to the kind of experiment: Cell viability assay, MM.1S. The format is cell-based. Particulars: Homo sapiens, MM1.S, Multiple Myeloma. On the procedure: as §1, §2
A further assay deals with MM.1R. As to the kind of experiment: Cell viability assay, MM.1R. Particulars: Multiple Myeloma. The class given is cell-based. On the procedure: as §1, §2
Another assay concerns NCI-H929. As to the kind of experiment: Cell viability assay, NCI-H929. The format is cell-based. Particulars: Homo sapiens, NCI-H929, Multiple Myeloma. On the procedure: as §1, §2
The subject of another assay is RPMI-8226. As to the kind of experiment: Cell viability assay, RPMI-8226. The format is cell-based. Particulars: Homo sapiens, RPMI-8226, Multiple myeloma. As to the method: as §1, §2
The next assay relates to VCaP. Description: Cell viability assay, VCaP. The class given is cell-based. Particulars: Homo sapiens, Prostate carcinoma. As to the method:
as §1, §2

The subject of the next assay is 22Rv1. Description: Cell viability assay, 22Rv1. The format is cell-based. Particulars: Homo sapiens, 22Rv1, Prostate carcinoma. As to the method:
as §1, §2

The next assay deals with SK-BR-3. As to the kind of experiment: Cell viability assay, SK-BR-3. The format is cell-based. Particulars: Homo sapiens, SK-BR-3, breast carcinoma. As to the method: as §1, §2
For a further assay, the target named is T1, CBP (Homo sapiens, UniProt Q92793).
T1 construct: from tissue; host or cells: 22RV1 subcutaneous xenograft tumours in athymic nude mice
T1 sequence (Q92793 whole entry): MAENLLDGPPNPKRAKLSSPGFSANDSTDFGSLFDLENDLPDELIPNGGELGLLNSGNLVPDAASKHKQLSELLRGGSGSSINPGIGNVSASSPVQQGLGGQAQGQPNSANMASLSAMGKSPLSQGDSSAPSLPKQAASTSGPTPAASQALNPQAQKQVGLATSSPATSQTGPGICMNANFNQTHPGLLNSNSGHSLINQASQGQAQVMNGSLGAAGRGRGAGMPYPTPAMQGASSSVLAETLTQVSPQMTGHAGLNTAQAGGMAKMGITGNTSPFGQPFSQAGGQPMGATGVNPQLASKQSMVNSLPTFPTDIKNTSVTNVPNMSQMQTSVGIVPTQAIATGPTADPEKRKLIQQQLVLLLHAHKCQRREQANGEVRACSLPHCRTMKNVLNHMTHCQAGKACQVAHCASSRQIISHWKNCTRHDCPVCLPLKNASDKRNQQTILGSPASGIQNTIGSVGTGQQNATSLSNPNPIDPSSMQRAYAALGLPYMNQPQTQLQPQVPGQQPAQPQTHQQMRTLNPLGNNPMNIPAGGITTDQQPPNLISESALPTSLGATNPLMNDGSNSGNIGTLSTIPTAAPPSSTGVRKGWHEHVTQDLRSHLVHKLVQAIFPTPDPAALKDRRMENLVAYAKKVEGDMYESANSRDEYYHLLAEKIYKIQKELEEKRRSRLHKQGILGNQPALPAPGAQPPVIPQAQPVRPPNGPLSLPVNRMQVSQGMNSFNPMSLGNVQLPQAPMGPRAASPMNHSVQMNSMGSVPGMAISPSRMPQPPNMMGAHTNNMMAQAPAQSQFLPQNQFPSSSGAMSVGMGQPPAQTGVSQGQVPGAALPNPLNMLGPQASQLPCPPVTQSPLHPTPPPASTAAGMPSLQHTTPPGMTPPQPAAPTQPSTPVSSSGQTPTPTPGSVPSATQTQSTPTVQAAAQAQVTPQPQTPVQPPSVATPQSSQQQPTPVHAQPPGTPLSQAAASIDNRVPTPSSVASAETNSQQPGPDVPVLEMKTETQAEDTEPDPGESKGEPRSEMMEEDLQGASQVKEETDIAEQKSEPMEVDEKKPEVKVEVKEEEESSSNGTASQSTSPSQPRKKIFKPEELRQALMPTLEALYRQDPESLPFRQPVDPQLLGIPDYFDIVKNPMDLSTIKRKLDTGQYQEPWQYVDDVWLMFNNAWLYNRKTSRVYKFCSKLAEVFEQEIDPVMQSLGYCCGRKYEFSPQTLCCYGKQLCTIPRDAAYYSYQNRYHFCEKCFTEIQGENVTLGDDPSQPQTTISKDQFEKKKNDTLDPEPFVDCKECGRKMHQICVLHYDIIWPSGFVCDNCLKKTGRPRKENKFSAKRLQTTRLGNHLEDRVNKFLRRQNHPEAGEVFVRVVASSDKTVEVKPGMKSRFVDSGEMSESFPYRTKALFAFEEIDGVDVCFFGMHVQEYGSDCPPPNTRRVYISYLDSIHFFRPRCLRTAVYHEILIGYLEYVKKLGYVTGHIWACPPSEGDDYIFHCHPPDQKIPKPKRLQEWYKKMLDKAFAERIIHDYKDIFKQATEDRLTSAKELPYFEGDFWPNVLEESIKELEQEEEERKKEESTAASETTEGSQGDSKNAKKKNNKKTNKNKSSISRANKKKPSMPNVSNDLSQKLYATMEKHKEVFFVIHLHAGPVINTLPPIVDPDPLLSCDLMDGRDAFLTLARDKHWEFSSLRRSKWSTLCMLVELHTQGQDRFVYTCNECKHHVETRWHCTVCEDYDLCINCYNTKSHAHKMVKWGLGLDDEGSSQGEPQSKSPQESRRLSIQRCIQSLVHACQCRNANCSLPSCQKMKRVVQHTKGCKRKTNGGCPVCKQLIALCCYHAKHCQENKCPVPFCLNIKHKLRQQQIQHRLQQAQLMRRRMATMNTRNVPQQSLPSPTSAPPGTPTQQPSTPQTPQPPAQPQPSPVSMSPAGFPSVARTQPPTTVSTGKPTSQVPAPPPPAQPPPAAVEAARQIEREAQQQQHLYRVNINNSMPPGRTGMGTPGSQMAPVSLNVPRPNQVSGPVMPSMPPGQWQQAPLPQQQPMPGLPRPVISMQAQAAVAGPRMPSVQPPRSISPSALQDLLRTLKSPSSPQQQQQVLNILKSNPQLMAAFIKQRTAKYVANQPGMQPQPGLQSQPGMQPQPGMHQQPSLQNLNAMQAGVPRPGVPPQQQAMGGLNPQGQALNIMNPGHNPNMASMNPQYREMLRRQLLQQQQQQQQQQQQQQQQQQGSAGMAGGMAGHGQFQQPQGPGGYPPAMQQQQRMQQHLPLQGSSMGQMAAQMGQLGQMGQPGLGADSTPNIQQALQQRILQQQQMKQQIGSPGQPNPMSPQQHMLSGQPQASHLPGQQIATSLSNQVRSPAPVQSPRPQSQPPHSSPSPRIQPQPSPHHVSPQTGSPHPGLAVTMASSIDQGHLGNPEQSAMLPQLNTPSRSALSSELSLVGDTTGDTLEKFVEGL
Description: Pharmacodynamic study, CBP in 22RV1 subcutaneous xenograft tumors. The class given is in vivo, Athymic nude mice. Particulars: single dose 40 mg/kg, i.p. or p.o., six hours after administration (FIG. 9). On the procedure: In addition to cultured cells, athymic nude mice bearing 22RV1 subcutaneous xenograft tumors at the right flank were intraperitoneally or orally treated with 40 mg/kg bivalent compounds. Six hours after drug administration, animals were sacrificed for immunoblotting of P300 and CBP in homogenized xenograft tumor masses. […] Moreover, ICR mice were orally treated with 40 mg/kg bivalent compounds. Six hours after drug administration, animals were sacrificed for immunoblotting of CBP in homogenized lung tissues.
Athymic nude mice bearing 22RV1 subcutaneous xenograft tumors at the right flank were intraperitoneally or orally treated with selected bivalent compounds at 40 mg/kg. Six hours after drug administration, animals were sacrificed, and xenograft tumors were collected for immunoblotting of P300 and CBP.
All animal experiments were performed under protocols approved by the Institutional Animal Care and Use Committee (IACUC) of Cullgen. Athymic nude mice (male, 5-weeks old) received 5 million 22RV1 cells subcutaneously inoculated at the right flank site. Twenty days following inoculation, tumors were approximately 500 mm^3 in size. Tumor-bearing mice were treated intraperitoneally or via oral gavage with vehicle or bivalent compounds at indicated doses. 6 hours after drug administration, animals were sacrificed, tumors were resected. Small chunks of tumors were homogenized for immunoblotting of P300/CBP and other proteins as indicated. Alternatively, ICR mice (male, 5-weeks old) were treated via oral gavage with vehicle or bivalent compounds at indicated doses. 6 hours after drug administration, animals were sacrificed, lung tissues were resected. Small chunks of lung tissues were homogenized for immunoblotting of CBP and other proteins as indicated.

Another assay deals with NOMO-1. Description: Cell viability assay, NOMO-1. The format is cell-based. Particulars: Homo sapiens, NOMO-1, Acute monocytic leukemia. As to the method:
as §1, §2

The next assay deals with NCI-H1703. Description: Cell viability assay, NCI-H1703. The class given is cell-based. Particulars: Homo sapiens, NCI-H1703, Non-small cell lung cancer. On the procedure:
as §1, §2

Turning to `CNC(=O)N1CCc2c(c(N3CCCc4cc(-c5cnn(C)c5)c(C(F)F)cc43)nn2C2CCN(C(=O)CCCCCCCNc3ccc4c(c3)C(=O)N(C3CCC(=O)NC3=O)C4=O)CC2)C1` (stereo not drawn) [P-007, 3-(7-(difluoromethyl)-6-(1-methyl-1H-pyrazol-4-yl)-3,4-dihydroquinolin-1(2H)-yl)-1-(1-(8-((2-(2,6-dioxopiperidin-3-yl)-1,3-dioxoisoindolin-5-yl)amino)octanoyl)piperidin-4-yl)-N-methyl-1,4,6,7-tetrahydro-5H-pyrazolo[4,3-c]pyridine-5-carboxamide], the IC50 turned out to be 16.1 nM in the assay on HEL; 8.9 nM in the assay with MV4; 11; 7.9 nM in the assay on MEG-01; 0.7 nM with MM.1S; 0.3 nM with MM.1R; 0.9 nM in the assay on NCI-H929. Further, the IC50 was 3.7 nM in the assay with RPMI-8226, 2.1 nM in the assay with VCaP, 3.2 nM in the assay on 22Rv1 and 5.5 nM with SK-BR-3. Besides, the “CBP protein levels in 22RV1 xenograft tumors” value at CBP is given as “significantly reducing”.

As to `CNC(=O)N1CCc2c(c(N3CCCc4cc(-c5cnn(C)c5)c(C(F)F)cc43)nn2C2CCN(C(=O)CCCCCNc3cccc4c3C(=O)N(C3CCC(=O)NC3=O)C4=O)CC2)C1` (stereo not drawn) [P-034, 3-(7-(difluoromethyl)-6-(1-methyl-1H-pyrazol-4-yl)-3,4-dihydroquinolin-1(2H)-yl)-1-(1-(6-((2-(2,6-dioxopiperidin-3-yl)-1,3-dioxoisoindolin-4-yl)amino)hexanoyl)piperidin-4-yl)-N-methyl-1,4,6,7-tetrahydro-5H-pyrazolo[4,3-c]pyridine-5-carboxamide], the IC50 is 37.8 nM in the assay with HEL; more than 10000 nM in the assay with MV4; 11; 0.8 nM in the assay on NOMO-1; 15.3 nM in the assay on MEG-01; 0.2 nM with MM.1S; 0.1 nM in the assay with MM.1R. The IC50 was 0.2 nM with NCI-H929; 9.4 nM in the assay with RPMI-8226; 3.6 nM in the assay with VCaP; 8.2 nM in the assay with 22Rv1; 2.9 nM in the assay with NCI-H1703; 10.1 nM with SK-BR-3. For the same compound, the “CBP protein levels in 22RV1 xenograft tumors” value on CBP is recorded as “significantly reducing”.
